The values that follow come from patent publication US20260232561A1, “PEPTIDE ACTIVATING RETINOIC ACID RECEPTOR, AND COSMETIC COMPOSITION CONTAINING SAME” (SUPADELIXIR INC., priority 2023, published 2026).

Assay [1] has as its system RAR and RXR. Briefly: in-situ proximity ligation assay (PLA) of physical binding between RAR and RXR in HaCaT cells. The settings on record: peptide 1 and 10 μM, 30 minutes, compared to untreated control group (FIG. 1). The format is cell-based, human. The protocol:
• 1. Retinol regulates the transcription of target DNA by inducing the binding between Retinoic acid receptor (RAR) and Retinoid X Receptor (RXR). To confirm whether the peptides of Example 1 activate the binding between RXR/RAR, the effects of the peptides on the physical binding between RAR and RXR were evaluated using an in-situ proximity ligation assay (PLA) method. • 2. Specifically, 4.5×10^4 HaCaT cells (human keratinocytes) were seeded into each well of a 24-well microplate with DMEM serum medium. The cells were cultured in an incubator at a temperature of 37° C. and with 5% CO2 for 24 hours. Next, the cells were treated with each of the peptides of Example 1, and the cells were incubated under the same conditions for 30 minutes. The concentration of each peptide in the medium was set to 1 and 10 μM. The control group received no treatment. Afterward, the cells in each well were washed with PBS and fixed by treatment with 2% formaldehyde for 15 minutes, and then the cells were treated with 0.1% TritonX-100 for 5 minutes to increase antibody permeability into the cells. […] Afterward, the physical interaction of RAR and RXR antibodies was quantified by measuring luminescence signals (PLA signals) detected in each cell using a fluorescence microscope (Logosbio/CelenaS, Korea), and the results are shown in FIG. 1. • 4. […]

In assay [2] the test system is P53 and POLII (RNA Polymerase II). As to the kind of experiment: in-situ proximity ligation assay (PLA) of physical binding between P53 and POLII in HaCaT cells. The format is cell-based, human. The note with it: peptide 1 and 10 μM, 30 minutes, compared to untreated control group (FIG. 2). Here is the method:
• 1. To confirm whether the peptides of Example 1 increase the transcriptional activity of P53, which was related to cell anti-aging, cells were treated with the peptides of Example 1, and then the effects of the peptides on the physical binding between P53 and POLII (RNA Polymerase II) was evaluated using an in-situ proximity ligation assay (PLA) method. • 2. Specifically, 4.5×10^4 HaCaT cells (human keratinocytes) were seeded into each well of a 24-well microplate with DMEM serum medium. The cells were cultured in an incubator at a temperature of 37° C. and with 5% CO2 for 24 hours. Next, the cells were treated with each of the peptides of Example 1, and the cells were incubated under the same conditions for 30 minutes. The concentration of each peptide in the medium was set to 1 and 10 μM. The control group received no treatment. Afterward, the cells in each well were washed with PBS and fixed by treatment with 2% formaldehyde for 15 minutes, and then the cells were treated with 0.1% TritonX-100 for 5 minutes to increase antibody permeability into the cells. […] Afterward, the physical interaction of P53 and POLII antibodies was quantified by measuring luminescence signals (PLA signals) detected in each cell using a fluorescence microscope (Logosbio/CelenaS, Korea), and the results are shown in FIG. 2. • 4. […]

Assay [3] has as its system human dermal fibroblasts. As to the kind of experiment: immunofluorescence analysis of intracellular collagen synthesis (anti-COL1A2). The settings on record: peptide 1 and 10 μM, 24 hours, compared to untreated control group (FIG. 3). The format is cell-based. Here is the method:
• 1. Immunofluorescence analysis was performed to evaluate the effects of the peptides of Example 1 on intracellular collagen synthesis. • 2. Specifically, 4.5×10^4 human dermal fibroblasts were seeded into each well of a 24-well microplate along with CEFOgro Human MSC Growth Medium). The cells were cultured in an incubator at a temperature of 37° C. and with 5% CO2 for 24 hours. Next, the cells were treated with each of the peptides of Example 1, and the cells were incubated under the same conditions for 24 hours. The concentration of each peptide in the medium was set to 1 and 10 μM. Out of two control groups, one received no treatment, and the other was treated with 1 μM retinol. The cells in each well were washed with PBS and fixed by treatment with 4% formaldehyde for 15 minutes, and then the cells were treated with 0.1% TritonX-100 for 5 minutes to increase antibody permeability into the cells. The cells were washed with PBS solution and treated with anti-COL1A2 polyclonal antibodies (Santa Cruz, CA, USA) for 1 hour. Next, the cells were treated with mouse anti-goat IgG-FITC for 40 minutes. To stain the cytoskeleton, the cells were treated with Phalloidin-Rhodamin for 40 minutes. After mounting with DAPI-added reagent for cell nucleus staining, the cells were observed using a fluorescence microscope (Logosbio/CelenaS, Korea) and quantified using a program (NIS-Eliments-3.1).

Assay [4] has as its system B16F10 cells (mouse melanocytes). As to the kind of experiment: inhibition of α-MSH-stimulated melanin synthesis in cells. The assay is classed as cell-based. The settings on record: 72 hours; for increase in melanin induced by α-MSH stimulation: 100 nM α-MSH, peptide 1 and 10 μM; for Melanin amount (of Control): no treatment = 100. Here is the method: • 1. […] Specifically, 1×10^5 B16F10 cells (mouse melanocytes) were seeded into each well of a 6-well microplate with DMEM serum medium. The cells were cultured in an incubator at a temperature of 37° C. and with 5% CO2 for 24 hours. […] The concentration of each peptide in the medium was set to 1 and 10 μM. […] Afterward, to measure the amount of extracellular melanin, the supernatant was taken, and the absorbance of free melanin in the medium was measured at a wavelength of 400 nm. To measure the amount of intracellular melanin, the cells were washed with PBS after removing the medium, and then the cells were lysed with 1 M NaOH at a temperature of 60° C. for 30 minutes, and the absorbance was measured at a wavelength of 400 nm. The amount of free melanin and intracellular melanin measured by absorbance were quantified, and the results are shown in Table 2. • 3.

Where [5] appears, read: α-MSH (100 nM) + test substance 1 uM.
[6] abbreviates: α-MSH (100 nM) + test substance 10 uM.

With Thr-Val-Glu-Phe (TVEF) [Raragin B], the “physical binding between RAR and RXR (PLA signals)” value in assay [1] is “increased”. Moreover, in assay [2], the “physical binding between P53 and POLII (PLA signals)” value is on record as “increased”. Moreover, the collagen synthesis result in assay [3] was “significantly increased”. For the same compound, in assay [4], the “increase in melanin induced by α-MSH stimulation” value was “reduced”. In addition, the Melanin amount (of Control) in assay [4] (setting [5]) was determined as 109%; in assay [4] (setting [6]), 106%.

For Ile-Gln-Glu-Met (IQEM) [Raragin A], the “physical binding between RAR and RXR (PLA signals)” value in assay [1] was “increased”. Also, in assay [2], the “physical binding between P53 and POLII (PLA signals)” value is recorded as “increased”. Besides, the collagen synthesis entry in assay [3] was “significantly increased”. Moreover, the “increase in melanin induced by α-MSH stimulation” value in assay [4] is recorded as “reduced”. Further, the Melanin amount (of Control) in assay [4] (setting [5]) was found to be 111%; in assay [4] (setting [6]), 107%.

Take `CC1=C(/C=C/C(C)=C/C=C/C(C)=C/CO)C(C)(C)CCC1` [Retinol, retinol, reference compound]: the Melanin amount (of Control) in assay [4] (setting [5]) came out at 114%.
